According to patent US20230091047A1 (priority 2019, published 2023):

Key:
[1] = tested on: HBV (HepG2.117 cell line, inducibly HBV producing); test: Anti-HBV activity: intracellular HBV DNA by real-time PCR in HepG2.117 cells after 3 days of treatment; type: cell-based, hepatitis B virus; settings: Hepatitis B virus, HepG2.117, 72 h, HepG2.117 cells, 3 days of treatment, intracellular HBV DNA by real-time PCR; mean value; read-out: EC50 (μM, mean value)
In short: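 HepG2.117 cells replicate HBV under Tet-off control, without doxycycline. After induction of replication, cells were treated with serially diluted compound for 3 days, and intracellular HBV DNA was then quantified by real-time PCR with an HBV-specific primer set and probe.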

[2] = in vitro; type: cell-based; settings: human, HepG2 or HepG2.117 cells, 3-days incubation (unmarked values), ATPlite; mean value
In short: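 Luminescent ATP quantitation served as the viability endpoint following a 3- or 4-day incubation with test compounds.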

Row | Structure (SMILES) | EC50 [1] [µM] | CC50 at 3 days [2] [µM]
1 | CNC(=O)c1ccc(-n2c(OC(C)C)nc3c(c2=O)C[C@@H](C)N(C(=O)c2ccc(Cl)c(Cl)c2)C3)cc1 [Compound C289, 4-[(6R)-7-(3,4-dichlorobenzoyl)-6-methyl-4-oxo-2-[(propan-2-yl)oxy]-5,6,7,8-tetrahydropyrido[3,4-d]pyrimidin-3(4H)-yl]-N-methylbenzamide] | 0.08 | > 50
2 | CNC(=O)c1cc(-n2c(NC(C)C)nc3c(c2=O)C[C@@H](C)N(C(=O)c2ccc(Cl)c(Cl)c2)C3)nn1C [Compound C292, 3-[(6R)-7-(3,4-dichlorobenzoyl)-6-methyl-4-oxo-2-[(propan-2-yl)amino]-5,6,7,8-tetrahydropyrido[3,4-d]pyrimidin-3(4H)-yl]-N,1-dimethyl-1H-pyrazole-5-carboxamide] | 0.04 | > 50
3 | CNC(=O)c1ccc(-n2c(NC(C)C)nc3c(c2=O)C[C@@H](C)N(C(=O)c2ccc(Cl)c(Cl)c2)C3)c(Cl)c1 [Compound C293, 3-chloro-4-[(6R)-7-(3,4-dichlorobenzoyl)-6-methyl-4-oxo-2-[(propan-2-yl)amino]-5,6,7,8-tetrahydropyrido[3,4-d]pyrimidin-3(4H)-yl]-N-methylbenzamide] | 0.06 | 34.9
4 | CNC(=O)c1ccc(-n2c(N[C@@H](C)C3CC3)nc3c(c2=O)C[C@@H](C)N(C(=O)c2ccc(Cl)c(Cl)c2)C3)cc1 [Compound C294, 4-[(6R)-2-{[(1S)-1-cyclopropylethyl]amino}-7-(3,4-dichlorobenzoyl)-6-methyl-4-oxo-5,6,7,8-tetrahydropyrido[3,4-d]pyrimidin-3(4H)-yl]-N-methylbenzamide] | 0.05 | 26.5
5 | CNC(=O)c1ccc(-n2c(N[C@H](C)C3CC3)nc3c(c2=O)C[C@@H](C)N(C(=O)c2ccc(Cl)c(Cl)c2)C3)cc1 [Compound C295, 4-[(6R)-2-{[(1R)-1-cyclopropylethyl]amino}-7-(3,4-dichlorobenzoyl)-6-methyl-4-oxo-5,6,7,8-tetrahydropyrido[3,4-d]pyrimidin-3(4H)-yl]-N-methylbenzamide] | 0.22 | 37.2
6 | CNC(=O)c1ccc(-n2c(NC3(C)CC3)nc3c(c2=O)C[C@@H](C)N(C(=O)c2ccc(Cl)c(Cl)c2)C3)cc1 [Compound C297, 4-[(6R)-7-(3,4-dichlorobenzoyl)-6-methyl-2-[(1-methylcyclopropyl)amino]-4-oxo-5,6,7,8-tetrahydropyrido[3,4-d]pyrimidin-3(4H)-yl]-N-methylbenzamide] | 0.05 | > 50
7 | CNC(=O)c1ccc(-n2c(NC(C)C)nc3c(c2=O)C[C@@H](C)N(C(=O)c2ccc(Cl)c(Cl)c2)C3)c(C)c1 [Compound C300a, 4-[(6R)-7-(3,4-dichlorobenzoyl)-6-methyl-4-oxo-2-[(propan-2-yl)amino]-5,6,7,8-tetrahydropyrido[3,4-d]pyrimidin-3(4H)-yl]-N,3-dimethylbenzamide] | 0.06 | > 50
8 | C#C[C@H](C)Nc1nc2c(c(=O)n1-c1ccc(C(=O)NC)cc1)C[C@@H](C)N(C(=O)c1ccc(Cl)c(Cl)c1)C2 [Compound C302, 4-[(6R)-2-{[(2S)-but-3-yn-2-yl]amino}-7-(3,4-dichlorobenzoyl)-6-methyl-4-oxo-5,6,7,8-tetrahydropyrido[3,4-d]pyrimidin-3(4H)-yl]-N-methylbenzamide] | 0.06 | > 50
9 | CNC(=O)c1ccc(-n2c(N3CCC3(C)C)nc3c(c2=O)C[C@@H](C)N(C(=O)c2ccc(Cl)c(Cl)c2)C3)cc1 [Compound C303, 4-[(6R)-7-(3,4-dichlorobenzoyl)-2-(2,2-dimethylazetidin-1-yl)-6-methyl-4-oxo-5,6,7,8-tetrahydropyrido[3,4-d]pyrimidin-3(4H)-yl]-N-methylbenzamide] | 0.07 | 26.7
10 | CNC(=O)c1ccc(-n2c(NC(C)C)nc3c(c2=O)C[C@@H](C)N(C(=O)c2ccc(Cl)c(Cl)c2)C3)nc1 [Compound C304, 6-[(6R)-7-(3,4-dichlorobenzoyl)-6-methyl-4-oxo-2-[(propan-2-yl)amino]-5,6,7,8-tetrahydropyrido[3,4-d]pyrimidin-3(4H)-yl]-N-methylpyridine-3-carboxamide] | 0.07 | > 50
11 | CNc1noc2cc(-n3c(NC(C)C)nc4c(c3=O)C[C@@H](C)N(C(=O)c3ccc(Cl)c(Cl)c3)C4)ccc12 [Compound C305, (6R)-7-(3,4-dichlorobenzoyl)-6-methyl-3-[3-(methylamino)-1,2-benzoxazol-6-yl]-2-[(propan-2-yl)amino]-5,6,7,8-tetrahydropyrido[3,4-d]pyrimidin-4(3H)-one] | 0.07 | > 50
12 | CNC(=O)c1ccc(-n2c(N[C@@H](C)c3cccc(F)c3)nc3c(c2=O)C[C@@H](C)N(C(=O)c2ccc(Cl)c(Cl)c2)C3)cc1 [Compound C306, 4-[(6R)-7-(3,4-dichlorobenzoyl)-2-{[(1S)-1-(3-fluorophenyl)ethyl]amino}-6-methyl-4-oxo-5,6,7,8-tetrahydropyrido[3,4-d]pyrimidin-3(4H)-yl]-N-methylbenzamide] | 0.08 | 19.3
13 | CNC(=O)c1ccc(-n2c(N3CCCC3(C)C)nc3c(c2=O)C[C@@H](C)N(C(=O)c2ccc(Cl)c(Cl)c2)C3)cc1 [Compound C307, 4-[(6R)-7-(3,4-dichlorobenzoyl)-2-(2,2-dimethylpyrrolidin-1-yl)-6-methyl-4-oxo-5,6,7,8-tetrahydropyrido[3,4-d]pyrimidin-3(4H)-yl]-N-methylbenzamide] | 0.09 | 28
14 | Cc1cc(-n2cccn2)ccc1-n1c(NC(C)C)nc2c(c1=O)C[C@@H](C)N(C(=O)c1ccc(Cl)c(Cl)c1)C2 [Compound C308, (6R)-7-(3,4-dichlorobenzoyl)-6-methyl-3-[2-methyl-4-(1H-pyrazol-1-yl)phenyl]-2-[(propan-2-yl)amino]-5,6,7,8-tetrahydropyrido[3,4-d]pyrimidin-4(3H)-one] | 0.11 | > 50
15 | CC(C)Nc1nc2c(c(=O)n1-c1ccc(-c3nccn3C)cc1Cl)C[C@@H](C)N(C(=O)c1ccc(Cl)c(Cl)c1)C2 [Compound C313, (6R)-3-[2-chloro-4-(1-methyl-1H-imidazol-2-yl)phenyl]-7-(3,4-dichlorobenzoyl)-6-methyl-2-[(propan-2-yl)amino]-5,6,7,8-tetrahydropyrido[3,4-d]pyrimidin-4(3H)-one] | 0.12 | 24.4
16 | CNC(=O)c1ccc(-n2c(N[C@@H](C)c3ccccc3F)nc3c(c2=O)C[C@@H](C)N(C(=O)c2ccc(Cl)c(Cl)c2)C3)cc1 [Compound C316, 4-[(6R)-7-(3,4-dichlorobenzoyl)-2-{[(1S)-1-(2-fluorophenyl)ethyl]amino}-6-methyl-4-oxo-5,6,7,8-tetrahydropyrido[3,4-d]pyrimidin-3(4H)-yl]-N-methylbenzamide] | 0.13 | 27.8
17 | CNC(=O)c1ccc(-n2c(NC(C)C)nc3c(c2=O)C[C@@H](C)N(C(=O)c2ccc(Cl)c(Cl)c2)C3)cc1OC [Compound C317, 4-[(6R)-7-(3,4-dichlorobenzoyl)-6-methyl-4-oxo-2-[(propan-2-yl)amino]-5,6,7,8-tetrahydropyrido[3,4-d]pyrimidin-3(4H)-yl]-2-methoxy-N-methylbenzamide] | 0.14 | > 50
